The values that follow come from patent publication US9783510B2, “Small molecule mediated transcriptional induction of E-cadherin” (Vanderbilt University, priority 2014, dated 2017).

pEC50: −log10 of the molar value.

This assay concerns E-cadherin expression in SW620 cells. Description: E-cadherin expression, in-cell Western (ICW), SW620 cells. The format is cell-based. The following applies: Homo sapiens. Summed up:
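SW620 cells were treated with compound for 24 h in RPMI 1640 (single-point at 10 μM; EC50 also determined), in quadruplicate. After methanol fixation, in-cell Western with anti-E-cadherin and anti-α-tubulin primaries and IRDye 800/700 secondaries. Read on an Odyssey IR imager.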

In turn, `O=C(NCCCNC(=O)c1cccnc1O)c1cc(-c2ccccc2)on1` [Compound 13, N-(3-(2-hydroxynicotinamido)propyl)-5-phenylisoxazole-3-carboxamide] gave a fold induction at 10 µM (SW-620, 24 h, change in expression level of E-cadherin in response to 10 μM compound, 24 hours, SW620 cells) of 5.23. This molecule gave a negative logarithm of the EC50 (pEC50) (SW-620, inducement of E-cadherin expression in SW620 cells) of 5.39.

A word on the fold induction: it is the ratio of treated to control signal. Low readings indicate little rise in signal, high ones a large rise in signal. One may read the pEC50 as −log10 of the EC50, conventionally taken in molar units. A lower pEC50 goes with a high EC50.
